Legend:
Assay type in all cases: cell-based
[1] = target: T1, alpha2B receptor (Homo sapiens, UniProt P18089); experiment: Receptor Selection and Amplification Technology (RSAT) assay, alpha2B; settings: for EC50: RSAT, NIH-3T3 cells cotransfected with receptor and Gq/i5, not active = not active at concentrations less than 10 micromolar, read-out: Alpha 2B EC50; for Alpha 2B IA (intrinsic activity): ratio of maximal effect of the drug to maximal effect of standard full agonist brimonidine (UK14304)
T1 construct: expressed in transfected cells; host or cells: NIH-3T3
T1 sequence (P18089 1-450): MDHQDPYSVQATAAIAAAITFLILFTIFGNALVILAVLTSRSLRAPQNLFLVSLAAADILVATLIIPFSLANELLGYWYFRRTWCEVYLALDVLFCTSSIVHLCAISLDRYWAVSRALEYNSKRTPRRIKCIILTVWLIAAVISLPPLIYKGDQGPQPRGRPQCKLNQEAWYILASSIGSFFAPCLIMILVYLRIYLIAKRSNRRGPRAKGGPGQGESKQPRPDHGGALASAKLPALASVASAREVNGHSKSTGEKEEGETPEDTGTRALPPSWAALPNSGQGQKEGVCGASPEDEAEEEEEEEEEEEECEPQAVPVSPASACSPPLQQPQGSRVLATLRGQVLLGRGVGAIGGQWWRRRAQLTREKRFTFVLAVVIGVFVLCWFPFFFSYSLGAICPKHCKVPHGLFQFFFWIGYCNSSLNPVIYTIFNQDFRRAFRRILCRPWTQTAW
Experimental: (§1) Receptor Selection and Amplification Technology (RSAT) Assay
(§2) The RSAT assay measures a receptor-mediated loss of contact inhibition that results in selective proliferation of receptor-containing cells in a mixed population of confluent cells. The increase in cell number is assessed with an appropriate transfected marker gene such as β-galactosidase, the activity of which can be easily measured in a 96-well format. Receptors that activate the G protein, Gq, elicit this response. Alpha2 receptors, which normally couple to Gi, activate the RSAT response when coexpressed with a hybrid Gq protein that has a Gi receptor recognition domain, called Gq/i5.
(§3) NIH-3T3 cells are plated at a density of 2×10^6 cells in 15 cm dishes and maintained in Dulbecco's modified Eagle's medium supplemented with 10% calf serum. One day later, cells are cotransfected by calcium phosphate precipitation with mammalian expression plasmids encoding p-SV-β-galactosidase (5-10 μg), receptor (1-2 μg) and G protein (1-2 μg). 40 μg salmon sperm DNA may also be included in the transfection mixture. Fresh media is added on the following day and 1-2 days later, cells are harvested and frozen in 50 assay aliquots. Cells are thawed and 100 μl added to 100 μl aliquots of various concentrations of drugs in triplicate in 96-well dishes. Incubations continue 72-96 hr at 37° C. After washing with phosphate-buffered saline, β-galactosidase enzyme activity is determined by adding 200 μl of the chromogenic substrate (consisting of 3.5 mM o-nitrophenyl-β-D-galactopyranoside and 0.5% nonidet P-40 in phosphate buffered saline), incubating overnight at 30° C. and measuring optical density at 420 nm. The absorbance is a measure of enzyme activity, which depends on cell number and reflects a receptor-mediated cell proliferation. The efficacy or intrinsic activity is calculated as a ratio of the maximal effect of the drug to the maximal effect of a standard full agonist for each receptor subtype. Brimonidine, also called UK14304, the chemical structure of which is shown below, is used as the standard agonist for the alpha2A, alpha2B and alpha2C receptors. The EC50 is the concentration at which the drug effect is half of its maximal effect.
The results of the RSAT assay with several exemplary compounds of the invention are disclosed in Table 1 above together with the chemical formulas of these exemplary compounds. EC50 values are nanomolar. NA stands for “not active” at concentrations less than 10 micromolar. IA stands for “intrinsic activity.”

[2] = target: T2, alpha2C receptor (Homo sapiens, UniProt P18825); experiment: Receptor Selection and Amplification Technology (RSAT) assay, alpha2C; settings: for EC50 / Alpha 2C EC50: RSAT, NIH-3T3 cells cotransfected with receptor and Gq/i5, not active = not active at concentrations less than 10 micromolar; for EC50: read-out: Alpha 2C EC50; for Alpha 2C IA (intrinsic activity): ratio of maximal effect of the drug to maximal effect of standard full agonist brimonidine (UK14304)
T2 construct: expressed in transfected cells; host or cells: NIH-3T3
T2 sequence (P18825 1-462): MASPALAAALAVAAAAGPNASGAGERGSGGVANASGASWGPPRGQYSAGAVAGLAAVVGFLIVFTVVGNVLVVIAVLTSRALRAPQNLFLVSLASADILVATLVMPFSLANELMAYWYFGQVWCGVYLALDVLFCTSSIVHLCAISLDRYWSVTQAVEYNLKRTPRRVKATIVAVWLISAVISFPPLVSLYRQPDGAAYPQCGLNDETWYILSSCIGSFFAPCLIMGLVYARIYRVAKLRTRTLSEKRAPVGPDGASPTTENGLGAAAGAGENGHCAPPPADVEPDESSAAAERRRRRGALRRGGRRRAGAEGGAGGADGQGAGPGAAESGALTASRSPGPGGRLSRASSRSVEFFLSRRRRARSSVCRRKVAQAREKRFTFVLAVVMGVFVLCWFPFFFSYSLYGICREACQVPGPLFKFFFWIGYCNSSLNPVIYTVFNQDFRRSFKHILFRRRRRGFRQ
Experimental: as §1, §2, §3
(§4) EC50 values are nanomolar. NA stands for “not active” at concentrations less than 10 micromolar. IA stands for “intrinsic activity.”

[3] = target: T3, alpha2A receptor (Homo sapiens, UniProt P08913); experiment: Receptor Selection and Amplification Technology (RSAT) assay, alpha2A; settings: for Alpha 2A EC50 / EC50: RSAT, NIH-3T3 cells cotransfected with receptor and Gq/i5, not active = not active at concentrations less than 10 micromolar; for EC50: read-out: Alpha 2A EC50; for Alpha 2A IA (intrinsic activity): ratio of maximal effect of the drug to maximal effect of standard full agonist brimonidine (UK14304)
T3 construct: expressed in transfected cells; host or cells: NIH-3T3
T3 sequence (P08913 1-465): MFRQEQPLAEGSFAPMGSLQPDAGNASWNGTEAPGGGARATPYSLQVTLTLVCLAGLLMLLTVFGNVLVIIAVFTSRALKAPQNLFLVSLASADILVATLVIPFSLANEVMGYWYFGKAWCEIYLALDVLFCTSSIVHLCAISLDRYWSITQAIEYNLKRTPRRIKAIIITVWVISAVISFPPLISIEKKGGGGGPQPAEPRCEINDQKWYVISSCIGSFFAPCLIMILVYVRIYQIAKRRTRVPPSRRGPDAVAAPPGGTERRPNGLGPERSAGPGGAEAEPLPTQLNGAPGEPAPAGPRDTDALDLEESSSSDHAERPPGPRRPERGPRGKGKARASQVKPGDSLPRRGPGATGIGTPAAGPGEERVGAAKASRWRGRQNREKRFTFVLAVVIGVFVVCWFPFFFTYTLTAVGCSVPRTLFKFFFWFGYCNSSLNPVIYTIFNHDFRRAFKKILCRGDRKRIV
Experimental: as §1, §2, §3, §4

SMILES | EC50 [1] | Alpha 2B IA (intrinsic activity) [1] | EC50 [2] | Alpha 2C IA (intrinsic activity) [2] | Alpha 2A EC50 [3] | EC50 [3] | Alpha 2A IA (intrinsic activity) [3] | Alpha 2C EC50 [2]
CCC[C@@H]1CCCC[C@H]1NC(=O)NCCF | 1740 nM | 0.84 |  |  |  | 1470 nM | 0.4 | not active
COc1cccc2c1CCCC2NC(=O)NCCF (stereo not shown) | 291 nM | 0.84 | 872 nM | 0.51 |  | 2350 nM | 0.37 | 
O=C(NCCF)NC1CCCCc2ccc(F)cc21 (stereo not shown) | 913 nM | 0.54 | 341 nM | 0.3 |  | > 2000 nM | 0.31 | 
Cc1cc(C)c2c(c1)C(NC(=O)NCCF)CCC2 (stereo not shown) | 27 nM | 0.91 | 391 nM | 0.58 |  | 109 nM | 0.49 | 
COc1ccc2c(c1)CC(NC(=O)NCCF)C2 (stereo not shown) | 1370 nM | 0.45 |  |  | not active |  |  | not active
Cc1cccc2c1CC(NC(=O)NCCF)C2 (stereo not shown) | 100 nM | 0.98 | 454 nM | 0.4 | not active |  |  | 
Cc1ccc2c(c1)CC(NC(=O)NCCF)C2 (stereo not shown) | 637 nM | 0.6 |  |  | not active |  |  | not active
O=C(NCCF)NC1Cc2ccc(Cl)cc2C1 (stereo not shown) | 1780 nM | 0.31 |  |  | not active |  |  | not active
O=C(NCCF)NC1Cc2cccc(Br)c2C1 (stereo not shown) | 156 nM | 0.45 |  |  | not active |  |  | not active
O=C(NCCF)NC1Cc2ccc(F)cc2C1 (stereo not shown) | 2200 nM | 0.93 |  |  | not active |  |  | not active
O=C(NCCF)NC1CCc2ccc(Cl)c(Cl)c21 (stereo not shown) | 72.4 nM | 1.0 | 29.5 nM | 0.43 | not active |  |  | 
Cc1ccc2c(c1C)C(NC(=O)NCCF)CC2 (stereo not shown) | 649 nM | 0.64 |  |  | not active |  |  | not active
CCc1cccc2c1CCCC2NC(=O)NCCF (stereo not shown) | 158 nM | 0.93 | 904 nM | 0.34 |  | 450 nM | 0.32 | 
Nc1cccc2c1CCC2NC(=O)NCCF (stereo not shown) | 36.6 nM | 1.0 | 1300 nM | 0.54 |  | 429 nM | 0.48 | 
O=C(NCCF)NC1CCc2ncccc21 (stereo not shown) | 100 nM | 1.08 | 2460 nM | 0.41 |  | 2550 nM | 0.55 | 

The next molecules have a lower EC50 [1] than those just listed; values first:

EC50 [1] | Alpha 2B IA (intrinsic activity) [1] | EC50 [2] | Alpha 2C IA (intrinsic activity) [2] | Alpha 2A EC50 [3] | EC50 [3] | Alpha 2A IA (intrinsic activity) [3] | Alpha 2C EC50 [2] | SMILES
21 nM | 0.89 | 282 nM | 0.45 |  | 331 nM | 0.34 |  | CC1CCC(NC(=O)NCCF)c2ccccc21 (stereo not shown)
21 nM | 0.68 | 182 nM | 0.32 | not active |  |  |  | O=C(NCCF)NC1Cc2cccc(F)c2C1 (stereo not shown)
20 nM | 1.01 | 716 nM | 0.97 |  | 111 nM | 0.52 |  | O=C(NCCF)NC1CCc2cccc(Br)c21 (stereo not shown)
15.4 nM | 0.67 | 12.5 nM | 0.44 | not active |  |  |  | O=C(NCCF)NC1Cc2cccc(Cl)c2C1 (stereo not shown)
10.9 nM | 0.96 | 168 nM | 0.43 | not active |  |  |  | CC1CC(NC(=O)NCCF)c2ccccc21 (stereo not shown)
9.6 nM | 0.96 | 73 nM | 0.73 |  | 186 nM | 0.53 |  | O=C(NCCF)NC1CCc2c(O)cccc21 (stereo not shown)
8.8 nM | 1.08 | 95.4 nM | 0.55 |  | 59.6 nM | 0.41 |  | O=C(NCCF)NC1CCc2cccc(F)c21 (stereo not shown)
8.3 nM | 0.95 | 102 nM | 0.73 |  | 95 nM | 0.62 |  | O=C(NCCF)NC1CCc2c(OC(=O)c3ccccc3)cccc21 (stereo not shown)
7.5 nM | 1.57 | 41 nM | 0.63 | not active |  |  |  | COc1cccc2c1CC(NC(=O)NCCF)C2 (stereo not shown)
7.2 nM | 1.05 | 103 nM | 0.78 |  | 29 nM | 0.68 |  | O=C(NCCF)NC1CCc2cccc(Cl)c21 (stereo not shown)
6.3 nM | 1.21 | 192 nM | 0.64 | not active |  |  |  | O=C(NCCF)NC1CCc2ccccc21 (stereo not shown)
1.2 nM | 1.1 | 67.2 nM | 0.79 |  | 120 nM | 0.59 |  | Cc1cccc2c1CCC2NC(=O)NCCF (stereo not shown)

From US7598417B2, “Substituted fluoroethyl ureas as alpha 2 adrenergic agents” (Allergan, Inc., priority 2007, dated 2009)
